Data: patent US11701372B2, “Inhalation formulations of 1'-cyano substituted carba-nucleoside analogs” (priority 2020, dated 2023)
Where two headings read alike, the source gives them in different places. Marks after values point to notes of the source that are not given here.

Key:
[1] = in vivo; settings: both, monkey, 0.168 mg/kg
Experimental: (§1) The average deposited dose was calculated at 0.168 mg/kg and 0.536 mg/kg, respectively. Plasma, peripheral blood mononuclear cells (PBMCs), trachea, bronchi, lung lobe, liver, kidney, nasal mucosa and nasopharyngeal mucosa samples were collected in this study.

[2] = PBMC concentrations of metabolites after inhalation in African Green Monkeys; settings: both, monkey, in vivo
Experimental: as §1

[3] = Plasma PK of Formula Ia and metabolites after inhalation in African Green Monkeys; settings: both, monkey, in vivo
Experimental: as §1

[4] = Respiratory tissue concentrations after inhalation in African Green Monkeys; settings: 24 hours
Experimental: as §1

[5] = Nebulizer performance (PARI LC Sprint jet nebulizer); format: physicochemical; settings: 5 mg/mL Formula Ia, 15% w/v SBECD, 8 mL charge; collected aerosol and residual solution
[6] = Characterisation of milled suspension formulations (osmolarity, pH, particle size); format: physicochemical; settings: 0.5% w/v poloxamer 237, 0.9% sodium chloride
Experimental: The vial capped, vortexed briefly, and then placed in a Bertin Instruments Precellys® Evolution blender. The blender was used to wet mill the mixture for 15×30 second cycles, with 120 second rest time between cycles. The blender speed was 7,200 rpm and cooling set was set to high. After milling, the milled suspension was separated from the beads by withdrawing the suspension from the vial using a syringe with a 1.5'' 25G needle. The recovered volume of the concentrated suspension was noted as 2.97 mL, and the concentration was measured as 25.8 mg/mL. The suspension was diluted with 2.14 mL of vehicle to obtain the target concentration of 15 mg/mL. […] The chiller set to 30° F., pump set to 100 rpm, and agitator set to 3000 rpm. The pump was primed with 100 mL of vehicle, and the first 80 mL of flowthough from priming was sent to waste. The mill was then set to recirculate as feeding continued with the addition of 150 mL of pre-mill formulation intermediate, followed by 25 mL of vehicle rinse. The formulation was allowed to recirculate though the mill for 1 hr, after which the flow was directed to a collection bottle. After 100 mL of concentrated suspension formulation was collected in the bottle, a vehicle chase was fed into the mill. Collection was stopped when the recovered volume reached 250 mL.

[7] = format: physicochemical
Experimental: For each conditions, the physical stability was measured as % LS and compared to % LS at T=0.

[8] = format: physicochemical; remark: listed apart in the source
Experimental: Samples for freeze-thaw cycling were also prepared and tested. For each condition, the physical stability was measured as % LS (label strength) and compared to % LS at T=0. […] The 7.5% SBECD formulation is also stable to freeze/thaw cycling (three cycles performed).

[9] = tested on: SARS-CoV2-Nano viruses; experiment: SARS-CoV-2 antiviral screening (A549-hACE2 cells, Nano luciferase); format: cell-based; settings: Severe acute respiratory syndrome coronavirus 2, 48 h
[10] = inhaled or intranasal, 0.168 mg/kg
[11] = inhaled or intranasal, 0.536 mg/kg
[12] = 15 mg/mL in water with 0.1% w/v HPMC
[13] = 7.5% SBECD w/v, 2-8° C., 24 h timepoint
[14] = 7.5% SBECD w/v, RT, 24 h timepoint

Structure (SMILES): N#C[C@@]1(c2ccc3c(N)ncnn23)O[C@H](CO)[C@@H](O)[C@H]1O [Compound A]
- concentration at 24 h [1]: 302 ± 44 nM
- concentration at 2 h ([2]; 0.168 mg/kg): 331 ± 92 nM
- concentration at 24 h ([2]; 0.536 mg/kg): 457 ± 130 nM
- concentration at 0.25 h ([3]; 0.168 mg/kg): 3 ± 1 nM
- concentration at 1 h ([3]; 0.168 mg/kg): 31 ± 7 nM
- concentration at 2 h ([3]; 0.168 mg/kg): 25 ± 5 nM
- concentration at 24 h ([3]; 0.168 mg/kg): 2 nM
- concentration at 0.75 h ([3]; 0.536 mg/kg): 29 ± 8 nM
- concentration at 1.52 h ([3]; 0.536 mg/kg): 58 ± 3 nM
- concentration at 2 h ([3]; 0.536 mg/kg): 71 ± 11 nM
- concentration at 4 h ([3]; 0.536 mg/kg): 43 ± 9 nM
- concentration at 8 h ([3]; 0.536 mg/kg): 22 ± 5 nM
- concentration at 24 h ([3]; 0.536 mg/kg): 5 ± 1 nM
- AUC(0-t) [3, 10]: 0.191 ± 0.03 µM·h
- Cmax [3, 10]: 31 ± 7 nM
- half-life [3, 10]: 7.58 ± 1.03 h
- AUC(0-t) [3, 11]: 0.539 ± 0.076 µM·h
- half-life [3, 11]: 7.1 ± 0.36 h
- Metabolite Concentrations ([4]; Lower Lung Lobe, 0.168 mg/kg inhaled deposited dose, LOQ for A and C 0.154 nmol/g tissue): BLQ
- Metabolite Concentrations ([4]; Lower Lung Lobe, 0.536 mg/kg inhaled deposited dose, LLOQ for A and C 0.154 nmol/g tissue): BLQ
- Metabolite Concentrations ([4]; Upper Bronchi, 0.168 mg/kg inhaled deposited dose, LOQ for A and C 0.154 nmol/g tissue): BLQ
- Metabolite Concentrations ([4]; Upper Bronchi, 0.536 mg/kg inhaled deposited dose, LLOQ for A and C 0.154 nmol/g tissue): BLQ
- Metabolite Concentrations ([4]; Upper Trachea, 0.168 mg/kg inhaled deposited dose, LOQ for A and C 0.154 nmol/g tissue): BLQ
- Metabolite Concentrations ([4]; Upper Trachea, 0.536 mg/kg inhaled deposited dose, LLOQ for A and C 0.154 nmol/g tissue): BLQ

Structure (SMILES): CCC(CC)COC(=O)[C@H](C)N[P@](=O)(OC[C@H]1O[C@@](C#N)(c2ccc3c(N)ncnn23)[C@H](O)[C@@H]1O)Oc1ccccc1 [Formula Ia, (S)-2-ethylbutyl 2-(((S)-(((2R,3S,4R,5R)-5-(4-aminopyrrolo[2,1-f][1,2,4]triazin-7-yl)-5-cyano-3,4-dihydroxytetrahydrofuran-2-yl)methoxy)(phenoxy)phosphoryl)amino)propanoate]
- change in % peak area for Formula Ia or its identified impurities after nebulization [5]: No significant change
- osmolarity [6, 12]: 285 mOsm/kg
- pH [6, 12]: 6.89
- volume mean diameter particle size [6, 12]: 3.65 μm
- particle size by polarized light microscopy ([6]; 100 mg/mL in water with 0.1% w/v HPMC): < 5 μm
- physical stability [7]: stable
- % LS T0 ([7]; pH 3.8): 99 % LS
- % LS After Stress, Hold ([7]; pH 3.8, 2-8° C. (1 wk)): 99 % LS
- % LS After Stress, Hold After Seeding ([7]; pH 3.8, 2-8° C. (1 wk)): 88 % LS
- % LS After Stress, Hold ([7]; pH 3.8, 2-8° C. (48 h)): 99 % LS
- % LS After Stress, Hold After Seeding ([7]; pH 3.8, 2-8° C. (48 h)): 99 % LS
- % LS After Stress, Hold ([7]; pH 3.8, 2-8° C. (72 h)): 99 % LS
- % LS After Stress, Hold After Seeding ([7]; pH 3.8, 2-8° C. (72 h)): 99 % LS
- % LS After Stress, Hold ([7]; pH 3.8, 2-8° C., 24 h): 100 % LS
- % LS After Stress, Hold After Seeding ([7]; pH 3.8, 2-8° C., 24 h): 100 % LS
- % LS After Stress, Freeze-thaw (3X) ([7]; pH 3.8, (+) seed): 99 % LS
- % LS After Stress, Freeze-thaw (3X) ([7]; pH 3.8, (−) seed): 99 % LS
- % LS After Stress, Hold ([7]; pH 3.8, RT (1 wk)): 99 % LS
- % LS After Stress, Hold After Seeding ([7]; pH 3.8, RT (1 wk)): 65 % LS
- % LS After Stress, Hold ([7]; pH 3.8, RT (24 h)): 100 % LS
- % LS After Stress, Hold After Seeding ([7]; pH 3.8, RT (24 h)): 99 % LS
- % LS After Stress, Hold ([7]; pH 3.8, RT (48 h)): 99 % LS
- % LS After Stress, Hold After Seeding ([7]; pH 3.8, RT (48 h)): 99 % LS
- % LS After Stress, Hold ([7]; pH 3.8, RT (72 h)): 99 % LS
- % LS After Stress, Hold After Seeding ([7]; pH 3.8, RT (72 h)): 99 % LS
- % LS T0 ([7]; pH 4.0): 100 % LS
- % LS After Stress, Hold ([7]; pH 4.0, 2-8° C. (1 wk)): 99 % LS
- % LS After Stress, Hold ([7]; pH 4.0, 2-8° C. (48 h)): 99 % LS
- % LS After Stress, Hold After Seeding ([7]; pH 4.0, 2-8° C. (48 h)): 79 % LS
- % LS After Stress, Hold ([7]; pH 4.0, 2-8° C. (72 h)): 100 % LS
- % LS After Stress, Hold After Seeding ([7]; pH 4.0, 2-8° C. (72 h)): 67 % LS
- % LS After Stress, Hold ([7]; pH 4.0, 2-8° C., 24 h): 100 % LS
- % LS After Stress, Hold After Seeding ([7]; pH 4.0, 2-8° C., 24 h): 96 % LS
- % LS After Stress, Freeze-thaw (3X) ([7]; pH 4.0, (+) seed): 99 % LS
- % LS After Stress, Freeze-thaw (3X) ([7]; pH 4.0, (−) seed): 99 % LS
- % LS After Stress, Hold ([7]; pH 4.0, RT (1 wk)): 98 % LS
- % LS After Stress, Hold ([7]; pH 4.0, RT (24 h)): 100 % LS
- % LS After Stress, Hold After Seeding ([7]; pH 4.0, RT (24 h)): 69 % LS
- % LS After Stress, Hold ([7]; pH 4.0, RT (48 h)): 99 % LS
- % LS After Stress, Hold After Seeding ([7]; pH 4.0, RT (48 h)): 60 % LS
- % LS After Stress, Hold ([7]; pH 4.0, RT (72 h)): 100 % LS
- % LS After Stress, Hold After Seeding ([7]; pH 4.0, RT (72 h)): 58 % LS
- % LS (Initial) ([8]; 5% SBECD w/v): 101 % LS
- % LS After Stress, Hold ([8]; 5% SBECD w/v, 2-8° C. (48 h)): 101 % LS
- % LS After Stress, Hold After Seeding ([8]; 5% SBECD w/v, 2-8° C. (48 h)): 80 % LS
- % LS After Stress, Hold ([8]; 5% SBECD w/v, RT (48 h)): 101 % LS
- % LS After Stress, Hold After Seeding ([8]; 5% SBECD w/v, RT (48 h)): 68 % LS
- % LS After Stress, Freeze-thaw (3x) ([8]; 5% SBECD w/v, after seeding): 69 % LS
- % LS After Stress, Freeze-thaw (3x) ([8]; 5% SBECD w/v, without seeding): 101 % LS
- % LS (Initial) ([8]; 7.5% SBECD w/v): 101 % LS
- % LS After Stress, Hold [8, 13]: 104* % LS
- % LS After Stress, Hold After Seeding [8, 13]: 103* % LS
- % LS After Stress, Hold [8, 14]: 103* % LS
- % LS After Stress, Hold After Seeding [8, 14]: 102* % LS
- % LS After Stress, Freeze-thaw (3x) ([8]; 7.5% SBECD w/v, after seeding): 97 % LS
- % LS After Stress, Freeze-thaw (3x) ([8]; 7.5% SBECD w/v, without seeding): 99 % LS
- % LS (Initial) ([8]; 10% SBECD w/v): 101 % LS
- % LS After Stress, Hold ([8]; 10% SBECD w/v, 2-8° C. (48 h)): 101 % LS
- % LS After Stress, Hold After Seeding ([8]; 10% SBECD w/v, 2-8° C. (48 h)): 99 % LS
- % LS After Stress, Hold ([8]; 10% SBECD w/v, RT (48 h)): 101 % LS
- % LS After Stress, Hold After Seeding ([8]; 10% SBECD w/v, RT (48 h)): 98 % LS
- % LS After Stress, Freeze-thaw (3x) ([8]; 10% SBECD w/v, after seeding): 98 % LS
- % LS After Stress, Freeze-thaw (3x) ([8]; 10% SBECD w/v, without seeding): 100 % LS
- % LS (Initial) ([8]; 20% SBECD w/v): 102 % LS
- % LS After Stress, Hold ([8]; 20% SBECD w/v, 2-8° C. (48 h)): 101 % LS
- % LS After Stress, Hold After Seeding ([8]; 20% SBECD w/v, 2-8° C. (48 h)): 101 % LS
- % LS After Stress, Hold ([8]; 20% SBECD w/v, RT (48 h)): 101 % LS
- % LS After Stress, Hold After Seeding ([8]; 20% SBECD w/v, RT (48 h)): 101 % LS
- % LS After Stress, Freeze-thaw (3x) ([8]; 20% SBECD w/v, after seeding): 100 % LS
- % LS After Stress, Freeze-thaw (3x) ([8]; 20% SBECD w/v, without seeding): 100 % LS
- EC50 [9]: 110 nM
